This assay relates to T1, B. licheniformis DMN6 trypsin (arginine-specific alkaline trypsin).
T1 construct: gene BLDMN6; native secreted enzyme purified from DMN6 culture supernatant (DEAE, Superdex 75); 44 kDa by SDS-PAGE
The experiment in a line: spectrophotometric hydrolysis at […] nm, Lineweaver-Burk. To be noted: 25 °C, 50 mM Tris-HCl pH 9.0, 0.1-1.5 mM BAEE. The assay is classed as biochemical, Bacillus licheniformis.

The term Km denotes the concentration of substrate that gives half-maximal velocity. With `CCOC(=O)[C@H](CCCNC(=N)N)NC(=O)c1ccccc1` [BAEE], the Km stood at 880 µM.

The values are drawn from article PMC4691143, “Biochemical Characterization of An Arginine-Specific Alkaline Trypsin from Bacillus licheniformis” (International Journal of Molecular Sciences, 2015).
